Measurements from ChEMBL document CHEMBL3045382, “Synthesis of a ligandquencher conjugate for the ligand binding study of the aryl hydrocarbon receptor using a FRET assay” (Med Chem Res, 2012).

How the values were obtained:
[1] = Cytotoxicity against rat H4G1.1c3 cells at 10 to 50 uM after 24 hr; assay type: cell-based
[2] = target: T1, Aryl hydrocarbon receptor (Homo sapiens, UniProt P35869); assay: Binding affinity to aryl hydrocarbon receptor in Homo sapiens (human) Hep3B cells assessed as upregulation of DRE-driven luciferase expression at 10 uM after 6 hr by Western blot analysis; assay type: cell-based; details: hep 3b2, 6 h
T1 sequence (P35869 whole entry): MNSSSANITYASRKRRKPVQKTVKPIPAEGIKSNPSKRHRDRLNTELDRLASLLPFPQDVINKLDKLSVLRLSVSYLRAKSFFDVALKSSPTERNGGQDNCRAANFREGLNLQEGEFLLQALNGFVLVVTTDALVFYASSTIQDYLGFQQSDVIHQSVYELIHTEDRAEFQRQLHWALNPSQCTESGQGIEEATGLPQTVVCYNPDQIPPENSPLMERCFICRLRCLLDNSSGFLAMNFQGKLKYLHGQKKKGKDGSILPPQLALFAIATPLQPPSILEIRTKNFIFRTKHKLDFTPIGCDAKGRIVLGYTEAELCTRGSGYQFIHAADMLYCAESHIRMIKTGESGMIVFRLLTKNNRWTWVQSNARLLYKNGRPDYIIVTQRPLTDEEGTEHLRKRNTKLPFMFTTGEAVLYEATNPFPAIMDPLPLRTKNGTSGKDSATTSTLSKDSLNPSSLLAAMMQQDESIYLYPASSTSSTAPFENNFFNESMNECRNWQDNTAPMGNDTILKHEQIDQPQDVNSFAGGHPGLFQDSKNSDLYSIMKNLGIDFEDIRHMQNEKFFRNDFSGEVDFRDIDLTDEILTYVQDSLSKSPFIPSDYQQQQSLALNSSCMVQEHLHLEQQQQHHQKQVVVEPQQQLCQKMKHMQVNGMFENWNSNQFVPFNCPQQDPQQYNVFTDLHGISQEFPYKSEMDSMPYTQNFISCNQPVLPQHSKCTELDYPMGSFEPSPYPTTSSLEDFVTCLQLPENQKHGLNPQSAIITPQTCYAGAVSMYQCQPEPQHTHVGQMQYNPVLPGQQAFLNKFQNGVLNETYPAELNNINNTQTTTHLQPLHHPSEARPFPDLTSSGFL

[3] = target: T1, Aryl hydrocarbon receptor; assay: Binding affinity to full length N-terminal GFP-fused Homo sapiens (human) aryl hydrocarbon receptor ligand binding domain (848 amino acid residues) expressed in baculovirus infected Sf9 cells assessed as fluorescence quenching at 10 uM after 10 min by fluorescence microscopic analysis; details: sf9, 10 min
[4] = target: T1, Aryl hydrocarbon receptor; assay: Binding affinity to full length N-terminal GFP-fused Homo sapiens (human) aryl hydrocarbon receptor ligand binding domain (848 amino acid residues) expressed in baculovirus infected Sf9 cells assessed as fluorescence quenching at 10 uM after 5 min by fluorescence microscopic analysis; details: sf9, 5 min
[5] = target: T2, Aryl hydrocarbon receptor (Rattus norvegicus, UniProt P41738); assay: Partial agonist activity at DRE-driven GFP-fused AhR ligand binding domain in rat H4G1.1c3 cells assessed as induction of DRE-driven GFP expression at 50 uM after 48 hr by fluorescence assay; assay type: cell-based
T2 sequence (P41738 whole entry): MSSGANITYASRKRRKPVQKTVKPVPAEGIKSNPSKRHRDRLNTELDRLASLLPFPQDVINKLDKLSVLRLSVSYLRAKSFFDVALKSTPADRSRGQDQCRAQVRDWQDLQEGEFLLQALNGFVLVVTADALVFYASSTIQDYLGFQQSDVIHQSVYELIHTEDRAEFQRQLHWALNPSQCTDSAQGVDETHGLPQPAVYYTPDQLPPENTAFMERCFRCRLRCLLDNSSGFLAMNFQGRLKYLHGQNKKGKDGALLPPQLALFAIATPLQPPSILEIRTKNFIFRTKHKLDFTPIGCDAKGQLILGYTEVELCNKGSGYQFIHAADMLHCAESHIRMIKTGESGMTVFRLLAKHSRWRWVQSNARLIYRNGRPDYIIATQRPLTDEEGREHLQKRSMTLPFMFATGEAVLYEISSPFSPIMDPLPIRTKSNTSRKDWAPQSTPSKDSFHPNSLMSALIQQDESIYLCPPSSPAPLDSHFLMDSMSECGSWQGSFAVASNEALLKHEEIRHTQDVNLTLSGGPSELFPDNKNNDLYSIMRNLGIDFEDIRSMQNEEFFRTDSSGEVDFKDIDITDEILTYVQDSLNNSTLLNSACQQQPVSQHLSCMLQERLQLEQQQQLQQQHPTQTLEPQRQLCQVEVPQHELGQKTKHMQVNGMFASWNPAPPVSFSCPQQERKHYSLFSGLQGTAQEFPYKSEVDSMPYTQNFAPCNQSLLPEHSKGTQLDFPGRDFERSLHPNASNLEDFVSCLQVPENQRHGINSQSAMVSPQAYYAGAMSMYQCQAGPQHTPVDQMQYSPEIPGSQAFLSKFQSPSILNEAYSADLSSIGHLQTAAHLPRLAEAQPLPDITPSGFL

[6] = target: T1, Aryl hydrocarbon receptor; assay: Competitive binding affinity to aryl hydrocarbon receptor in Homo sapiens (human) Hep3B cells assessed as effect on betaNF-mediated DRE-driven luciferase expression at 10 uM after 6 hr by Western blot analysis relative to control; assay type: cell-based; details: hep 3b2, 6 h
[7] = target: T1, Aryl hydrocarbon receptor; assay: Competitive binding affinity to aryl hydrocarbon receptor in Homo sapiens (human) Hep3B cells assessed as supression of betaNF-mediated DRE-driven luciferase expression at 10 uM after 6 hr by Western blot analysis relative to control; assay type: cell-based; details: hep 3b2, 6 h
[8] = target: T1, Aryl hydrocarbon receptor; assay: Binding affinity to full length N-terminal GFP-fused Homo sapiens (human) aryl hydrocarbon receptor ligand binding domain (848 amino acid residues) expressed in baculovirus infected Sf9 cells assessed as fluorescence quenching at 10 uM up to 30 min by fluorescence microscopic analysis; details: sf9, 0.5 h
[9] = target: T1, Aryl hydrocarbon receptor; assay: Binding affinity to aryl hydrocarbon receptor in Homo sapiens (human) Hep3B cells assessed as upregulation of DRE-driven luciferase expression at 10 uM after 6 hr by Western blot analysis relative to control; assay type: cell-based, Hep 3B2; details: Hep3B cells with DRE-driven luciferase reporter, read-out: FC
[10] = target: T1, Aryl hydrocarbon receptor; assay: (§1) Competitive binding affinity to full length N-terminal GFP-fused Homo sapiens (human) aryl hydrocarbon receptor ligand binding domain (848 amino acid residues) expressed in baculovirus infected Sf9 cells assessed as reversal of betaNFQ-mediated fluorescence quenching at 5 uM measured at 5 min by fluorescence microscopic analysis; details: sf9, 5 min
[11] = target: T1, Aryl hydrocarbon receptor; assay: as §1, with “4-((4-(dimethylamino)phenyl)diazenyl)-N-(2-(2-(2-(2-hydroxyethoxy)ethoxy)ethoxy)ethyl)benzamide4-((4-(dimethylamino)phenyl)diazenyl)-N-(2-(2-(2-(2-hydroxyethoxy)ethoxy)ethoxy)ethyl)benzamide-mediated” for “betaNFQ-mediated”; details: sf9, 5 min
[12] = target: T2, Aryl hydrocarbon receptor; assay: Agonist activity at DRE-driven GFP-fused AhR ligand binding domain in rat H4G1.1c3 cells assessed as induction of DRE-driven GFP expression at 10 uM after 48 hr by fluorescence assay; assay type: cell-based

Row | Compound | Activity [1] | Activity [3] [%] | Activity [4] [%] | Activity [5] | fold induction at 6 h, 10 µM [9] | other results
1 | CN(C)c1ccc(/N=N/c2ccc(C(=O)NCCOCCOCCOCCOCCOCCOCCOCCOCc3ccc(-c4cc(=O)c5c(ccc6ccccc65)o4)cc3)cc2)cc1 | Toxic | – | – | – | – | –
2 | CN(C)c1ccc(/N=N/c2ccc(C(=O)NCCOCCOCCOCCO)cc2)cc1 | – | 16 | 13 | Not Active | – | Activity [2]: Not Active; Activity [6]: Not Active
3 | CN(C)c1ccc(/N=N/c2ccc(C(=O)NCCOCCOCCOCCOCc3ccc(-c4cc(=O)c5c(ccc6ccccc65)o4)cc3)cc2)cc1 | Non-toxic | 24 | 18 | Active | 14 | fold change (FC) [7]: 23; Activity [8]: 29%
4 | Cc1ccc2cc3c(ccc4ccccc43)c3c2c1CC3 [3-METHYLCHOLANTHRENE] | – | – | – | – | – | Activity [10]: Active; Activity [11]: Not Active
5 | O=c1cc(-c2ccccc2)oc2ccc3ccccc3c12 [BETA-NAPHTHOFLAVONE] | – | – | – | – | 75 | Activity [12]: Active
